The target of one assay is T1, STAT5A (Homo sapiens, UniProt P42229).
T1 sequence (P42229 1-794): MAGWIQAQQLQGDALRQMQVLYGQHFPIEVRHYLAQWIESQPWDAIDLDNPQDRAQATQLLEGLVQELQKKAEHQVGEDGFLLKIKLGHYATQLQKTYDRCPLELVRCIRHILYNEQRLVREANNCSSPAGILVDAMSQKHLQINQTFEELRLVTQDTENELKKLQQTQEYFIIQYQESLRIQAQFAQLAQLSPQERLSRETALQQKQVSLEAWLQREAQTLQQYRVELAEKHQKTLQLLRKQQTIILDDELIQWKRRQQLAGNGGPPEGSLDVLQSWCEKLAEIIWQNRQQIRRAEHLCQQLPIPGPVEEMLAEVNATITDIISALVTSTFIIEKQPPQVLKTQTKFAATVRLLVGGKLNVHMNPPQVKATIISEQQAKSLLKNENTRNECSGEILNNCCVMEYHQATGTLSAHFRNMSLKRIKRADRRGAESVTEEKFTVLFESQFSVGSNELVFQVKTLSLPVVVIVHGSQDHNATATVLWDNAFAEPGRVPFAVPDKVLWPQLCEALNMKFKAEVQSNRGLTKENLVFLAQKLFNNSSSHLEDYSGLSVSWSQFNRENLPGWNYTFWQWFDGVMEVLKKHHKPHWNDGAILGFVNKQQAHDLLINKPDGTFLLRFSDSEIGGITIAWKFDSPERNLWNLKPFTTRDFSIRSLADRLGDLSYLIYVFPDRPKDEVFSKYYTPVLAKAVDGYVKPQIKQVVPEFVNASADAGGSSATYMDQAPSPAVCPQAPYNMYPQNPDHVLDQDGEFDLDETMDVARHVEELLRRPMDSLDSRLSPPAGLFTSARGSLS
The experiment in a line: Fluorescence polarization (FP) binding assay, STAT5A. As to conditions: FP competition, 5 nM fluorescein-labeled tracer, 200 nM protein, PBS pH7.4. A digest of the protocol: (§1)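 Fluorescence polarization is read after STAT5 or STAT6 protein (200 nM) and a fluorescein-labeled tracer (5 nM) equilibrate for 1 h at room temperature in DTT-containing PBS pH 7.4 with BGG and Tween-20. Inhibition constants are obtained by nonlinear curve fitting.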

The next assay has as its target T2, STAT6 protein (Homo sapiens, UniProt P42226).
T2 sequence (P42226 1-847): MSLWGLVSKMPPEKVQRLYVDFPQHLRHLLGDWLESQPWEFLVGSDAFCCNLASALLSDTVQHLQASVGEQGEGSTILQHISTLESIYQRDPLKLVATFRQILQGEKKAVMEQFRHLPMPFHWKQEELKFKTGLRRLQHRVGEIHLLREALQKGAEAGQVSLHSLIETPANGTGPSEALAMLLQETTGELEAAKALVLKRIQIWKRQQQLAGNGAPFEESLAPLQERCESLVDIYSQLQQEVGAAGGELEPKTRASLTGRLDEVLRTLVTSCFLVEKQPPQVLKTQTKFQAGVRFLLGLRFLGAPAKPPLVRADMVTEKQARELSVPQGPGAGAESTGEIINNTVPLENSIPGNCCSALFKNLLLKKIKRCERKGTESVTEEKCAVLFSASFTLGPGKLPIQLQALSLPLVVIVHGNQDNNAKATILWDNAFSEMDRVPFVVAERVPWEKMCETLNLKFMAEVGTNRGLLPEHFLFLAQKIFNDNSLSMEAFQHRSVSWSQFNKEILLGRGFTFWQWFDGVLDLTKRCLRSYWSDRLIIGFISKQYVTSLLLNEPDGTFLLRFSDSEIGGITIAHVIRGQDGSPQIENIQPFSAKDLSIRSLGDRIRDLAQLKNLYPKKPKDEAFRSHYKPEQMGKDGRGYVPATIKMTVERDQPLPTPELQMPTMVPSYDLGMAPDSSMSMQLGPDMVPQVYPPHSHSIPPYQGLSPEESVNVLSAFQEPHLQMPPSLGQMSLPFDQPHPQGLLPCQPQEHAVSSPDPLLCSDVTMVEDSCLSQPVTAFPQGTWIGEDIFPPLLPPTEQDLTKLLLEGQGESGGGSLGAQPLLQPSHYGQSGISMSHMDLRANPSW
The assay is described as follows: Fluorescence polarization (FP) binding assay, STAT6. The conditions noted are these: FP competition, 5 nM fluorescein-labeled tracer, 200 nM protein, PBS pH7.4; read-out: Binding STAT6. In outline: as §1

Each structure is given as a SMILES string. A value given as a limit tells only on which side of the number the result lay.

In the case of `CC(C)(C)[C@H](NC(=O)c1cc2cc(C(F)(F)P(=O)(O)O)ccc2s1)C(=O)N1CCC[C@H]1C(=O)N1CC[C@H]2CCN[C@H]2C1` [Compound 78, ((2-(((S)-3,3-dimethyl-1-((S)-2-((3aR,7aR)-octahydro-1H-pyrrolo[2,3-c]pyridine-6-carbonyl)pyrrolidin-1-yl)-1-oxobutan-2-yl)carbamoyl)benzo[b]thiophen-5-yl)difluoromethyl)phosphonic acid], the Ki at STAT5A and at STAT6 protein was greater than 10 µM throughout.

As to `CC(C)(C)[C@H](NC(=O)c1cc2cc(C(F)(F)P(=O)(O)O)ccc2s1)C(=O)N1CCC[C@H]1C(=O)N1CC[C@@H]2CNC[C@@H]21` [Compound 79, ((2-(((S)-3,3-dimethyl-1-((S)-2-((3aR,6aR)-octahydropyrrolo[3,4-b]pyrrole-1-carbonyl)pyrrolidin-1-yl)-1-oxobutan-2-yl)carbamoyl)benzo[b]thiophen-5-yl)difluoromethyl)phosphonic acid], the Ki at STAT5A and on STAT6 protein was greater than 10 µM each time.

Regarding `CC(C)(C)[C@H](NC(=O)c1cc2cc(C(F)(F)P(=O)(O)O)ccc2s1)C(=O)N1CCC[C@H]1C(=O)N1C[C@H]2CCN[C@H]2C1` [Compound 80, ((2-(((S)-3,3-dimethyl-1-((S)-2-((3aR,6aR)-octahydropyrrolo[3,4-b]pyrrole-5-carbonyl)pyrrolidin-1-yl)-1-oxobutan-2-yl)carbamoyl)benzo[b]thiophen-5-yl)difluoromethyl)phosphonic acid], the Ki at STAT5A and at STAT6 protein was greater than 10 µM throughout.

As to `CC(=O)N1CC[C@@H]2CCN(C(=O)[C@@H]3CCCN3C(=O)[C@@H](NC(=O)c3cc4cc(C(F)(F)P(=O)(O)O)ccc4s3)C(C)(C)C)C[C@@H]21` [Compound 81, ((2-(((S)-1-((S)-2-((3aS,7aR)-1-acetyloctahydro-1H-pyrrolo[2,3-c]pyridine-6-carbonyl)pyrrolidin-1-yl)-3,3-dimethyl-1-oxobutan-2-yl)carbamoyl)benzo[b]thiophen-5-yl)difluoromethyl)phosphonic acid], the Ki at STAT5A and at STAT6 protein was greater than 10 µM each time.

For the compound `CCCCC(=O)N1CC[C@@H]2CCN(C(=O)[C@@H]3CCCN3C(=O)[C@@H](NC(=O)c3cc4cc(C(F)(F)P(=O)(O)O)ccc4s3)C(C)(C)C)C[C@@H]21` [Compound 82, ((2-(((S)-3,3-dimethyl-1-oxo-1-((S)-2-((3aS,7aR)-1-pentanoyloctahydro-1H-pyrrolo[2,3-c]pyridine-6-carbonyl)pyrrolidin-1-yl)butan-2-yl)carbamoyl)benzo[b]thiophen-5-yl)difluoromethyl)phosphonic acid], the Ki at STAT5A and on STAT6 protein was greater than 10 µM in each case.

Regarding `CC(C)(C)[C@H](NC(=O)c1cc2cc(C(F)(F)P(=O)(O)O)ccc2s1)C(=O)N1CCC[C@H]1C(=O)N1CC[C@H]2CCN(C(=O)c3ccc(F)cc3)[C@H]2C1` [Compound 83, (difluoro(2-(((S)-1-((S)-2-((3aS,7aR)-1-(4-fluorobenzoyl)octahydro-1H-pyrrolo[2,3-c]pyridine-6-carbonyl)pyrrolidin-1-yl)-3,3-dimethyl-1-oxobutan-2-yl)carbamoyl)benzo[b]thiophen-5-yl)methyl)phosphonic acid], the Ki on STAT5A and on STAT6 protein was greater than 10 µM each time.

As for `CC(=O)N1C[C@H]2CCN(C(=O)[C@@H]3CCCN3C(=O)[C@@H](NC(=O)c3cc4cc(C(F)(F)P(=O)(O)O)ccc4s3)C(C)(C)C)[C@H]2C1` [Compound 84, ((2-(((S)-1-((S)-2-((3aR,6aR)-5-acetyloctahydropyrrolo[3,4-b]pyrrole-1-carbonyl)pyrrolidin-1-yl)-3,3-dimethyl-1-oxobutan-2-yl)carbamoyl)benzo[b]thiophen-5-yl)difluoromethyl)phosphonic acid], the Ki at STAT5A and at STAT6 protein was greater than 10 µM throughout.

On to `CCCCC(=O)N1C[C@H]2CCN(C(=O)[C@@H]3CCCN3C(=O)[C@@H](NC(=O)c3cc4cc(C(F)(F)P(=O)(O)O)ccc4s3)C(C)(C)C)[C@H]2C1` [Compound 85, ((2-(((S)-3,3-dimethyl-1-oxo-1-((S)-2-((3aR,6aR)-5-pentanoyloctahydropyrrolo[3,4-b]pyrrole-1-carbonyl)pyrrolidin-1-yl)butan-2-yl)carbamoyl)benzo[b]thiophen-5-yl)difluoromethyl)phosphonic acid], for which the Ki at STAT5A and at STAT6 protein was greater than 10 µM each time.

In the case of `CC(C)(C)[C@H](NC(=O)c1cc2cc(C(F)(F)P(=O)(O)O)ccc2s1)C(=O)N1CCC[C@H]1C(=O)N1CC[C@@H]2CN(C(=O)c3ccc(F)cc3)C[C@@H]21` [Compound 86, (difluoro(2-(((S)-1-((S)-2-((3aR,6aR)-5-(4-fluorobenzoyl)octahydropyrrolo[3,4-b]pyrrole-1-carbonyl)pyrrolidin-1-yl)-3,3-dimethyl-1-oxobutan-2-yl)carbamoyl)benzo[b]thiophen-5-yl)methyl)phosphonic acid], the Ki on STAT5A and on STAT6 protein was greater than 10 µM in each case.

With `CC(=O)N1CC[C@@H]2CN(C(=O)[C@@H]3CCCN3C(=O)[C@@H](NC(=O)c3cc4cc(C(F)(F)P(=O)(O)O)ccc4s3)C(C)(C)C)C[C@@H]21` [Compound 87, ((2-(((S)-1-((S)-2-((3aR,6aR)-1-acetyloctahydropyrrolo[3,4-b]pyrrole-5-carbonyl)pyrrolidin-1-yl)-3,3-dimethyl-1-oxobutan-2-yl)carbamoyl)benzo[b]thiophen-5-yl)difluoromethyl)phosphonic acid], the Ki on STAT5A and on STAT6 protein was greater than 10 µM each time.

As to `CCCCC(=O)N1CC[C@@H]2CN(C(=O)[C@@H]3CCCN3C(=O)[C@@H](NC(=O)c3cc4cc(C(F)(F)P(=O)(O)O)ccc4s3)C(C)(C)C)C[C@@H]21` [Compound 88, ((2-(((S)-3,3-dimethyl-1-oxo-1-((S)-2-((3aR,6aR)-1-pentanoyloctahydropyrrolo[3,4-b]pyrrole-5-carbonyl)pyrrolidin-1-yl)butan-2-yl)carbamoyl)benzo[b]thiophen-5-yl)difluoromethyl)phosphonic acid], the Ki at STAT5A and on STAT6 protein was greater than 10 µM throughout.

For the compound `CC(C)(C)[C@H](NC(=O)c1cc2cc(C(F)(F)P(=O)(O)O)ccc2s1)C(=O)N1CCC[C@H]1C(=O)N1C[C@H]2CCN(C(=O)c3ccc(F)cc3)[C@H]2C1` [Compound 89, (difluoro(2-(((S)-1-((S)-2-((3aR,6aR)-1-(4-fluorobenzoyl)octahydropyrrolo[3,4-b]pyrrole-5-carbonyl)pyrrolidin-1-yl)-3,3-dimethyl-1-oxobutan-2-yl)carbamoyl)benzo[b]thiophen-5-yl)methyl)phosphonic acid], the Ki at STAT5A and on STAT6 protein was greater than 10 µM each time.

Consider `CC(=O)N1CC[C@H]2CCN(C(=O)[C@@H]3CCCN3C(=O)[C@@H](NC(=O)c3cc4cc(C(F)(F)P(=O)(O)O)ccc4s3)C(C)(C)C)[C@H]2C1` [Compound 90, ((2-(((S)-1-((S)-2-((3aS,7aR)-6-acetyloctahydro-1H-pyrrolo[2,3-c]pyridine-1-carbonyl)pyrrolidin-1-yl)-3,3-dimethyl-1-oxobutan-2-yl)carbamoyl)benzo[b]thiophen-5-yl)difluoromethyl)phosphonic acid], for which the Ki on STAT5A and at STAT6 protein was greater than 10 µM throughout.

Source of the values: patent US20230295200A1 (REGENTS OF THE UNIVERSITY OF MICHIGAN, priority 2022, published 2023).
